# Laboratory results from patent US20190358181A1, “METHODS FOR AUTISM SPECTRUM DISORDER PHARMACOTHERAPY” (priority 2017, published 2019).
# Tested on: 610 metabolites from 63 biochemical pathways
# Assay: Targeted broad-spectrum plasma metabolomic analysis (LC-MS/MS), paired pre-infusion vs post-infusion (2-days and 6-weeks)
# Assay type: in vivo, human
# Conditions: for Linear Ratio / VIP Score / Z Abs / Z Score: plasma
# Protocol: Targeted, broad-spectrum, plasma metabolomic analysis of 610 metabolites from 63 biochemical pathways was performed by high performance liquid chromatography and tandem mass spectrometry (LC-MS/MS) on the samples collected from patients in Example 1. Venous blood was collected between the hours of 8 am and 5 pm, at least 3 hours after the last meal, into lithium-heparin vacutainer tubes (BD #367884). Plasma was separated by centrifugation at 900 g×10 minutes at room temperature within one hour of collection. The resulting fresh lithium-heparin plasma was transferred to labeled 1.2 ml or 2.0 ml externally threaded cryotubes with a minimum headspace air gap for storage at −80° C. for analysis. Samples were analyzed on an AB SCIEX QTRAP 5500 triple quadrupole mass spectrometer equipped with a Turbo V electrospray ionization (ESI) source, Shimadzu LC-20A UHPLC system, and a PAL CTC autosampler. Typically, 90 μl of plasma was thawed on ice and transferred to a 1.7 ml Eppendorf tube. Five (5.0) μl of a cocktail containing 25-35 commercial stable isotope internal standards, and 5.0 μl of 57 stable isotope internal standards that were custom-synthesized in E. coli NCM3722, Caenorhabditis elegans N2, and Komagataella phaffii (ATCC 76273; formerly known as Pichia pastoris) by metabolic labeling with 13C-glucose and 13C-bicarbonate, were added, mixed, and incubated for 10 min at 20° C. to permit small molecules and vitamins in the internal standards to associate with plasma binding proteins. Macromolecules (protein, DNA, RNA, glycans, etc.) were precipitated by extraction with 4 volumes (400 μl) of cold (−20° C.), acetonitrile:methanol (50:50) (LCMS grade, Cat #LC015-2.5 and GC230-4, Burdick & Jackson, Honeywell), vortexed vigorously, and incubated on crushed ice for 10 min, then removed by centrifugation at 16,000 g×10 min at 4° C. The supernatants containing the extracted metabolites and internal standards in the resulting 40:40:20 solvent mix of acetonitrile:methanol:water were transferred to labeled cryotubes and stored at −80° C. for LCMS/MS analysis.
# LC-MS/MS analysis was performed by scheduled multiple reaction monitoring (sMRM) under Analyst v1.6.2 software control in both negative and positive mode with rapid polarity switching (50 ms). Nitrogen was used for curtain gas (set to 30), collision gas (set to high), ion source gas 1 and 2 (set to 35). The source temperature was 500° C. Spray voltage was set to −4500 V in negative mode and 5500 V in positive mode. The values for Q1 and Q3 mass-to-charge ratios (m/z), declustering potential (DP), entrance potential (EP), collision energy (CE), and collision cell exit potential (CXP) were determined and optimized for each MRM for each metabolite. Ten microliters of extract was injected by PAL CTC autosampler via a 10 μl stainless steel loop into a 250 mm×2.0 mm, 4 μm polymer based NH2 HPLC column (Asahipak NH2P-40 2E, Showa Denko America, Inc., NY) held at 25° C. for chromatographic separation. The mobile phase was solvent A: 95% water with 20 mM (NH4)2CO3 (Sigma, Fluka Cat #74415-250G-F), 5% acetonitrile, and 38 mM NH4OH (Sigma, Fluka Cat #17837-100ML), final pH 9.75; solvent B: 100% acetonitrile. Separation was achieved using the following gradient: 0-3.5 min: 95% B, 3.6-8 min: 85% B, 8.1-13 min: 75% B, 13.5-35 min: 0% B, 36-46 min: 95% B, 46.1 min: end. The flow rate was 200 μl/min. Pump pressures ranged from 920-2600 psi over the course of the gradient. All the samples were kept at 4° C. during analysis. The chromatographic peaks were identified using MultiQuant (v3.0, Sciex), confirmed by manual inspection, and the peak areas integrated. […]
# [1] = Nitric Oxide, Superoxide, Peroxide Metabolism, 6-weeks
# [2] = Nitric Oxide, Superoxide, Peroxide, 2-days
# [3] = Phospholipid Metabolism, 2-days
# [4] = Phospholipid Metabolism, 6-weeks
smiles,measurement,setting,value
"Cc1ccc(C(=O)Nc2ccc(S(=O)(=O)O)c3cc(S(=O)(=O)O)cc(S(=O)(=O)O)c23)cc1NC(=O)c1cccc(NC(=O)Nc2cccc(C(=O)Nc3cc(C(=O)Nc4ccc(S(=O)(=O)O)c5cc(S(=O)(=O)O)cc(S(=O)(=O)O)c45)ccc3C)c2)c1 [Suramin, suramin]",Fold Enrichment (Obs/Exp),"Krebs Cycle, 2-days",1.6
same,Fraction of Impact (VIP Score) Explained (% of 119.7),"Krebs Cycle, 2-days",3%
same,Impact (Sum VIP Score),"Krebs Cycle, 2-days",3.3
same,Increased,"Krebs Cycle, 2-days",2
same,Observed Hits in the Top 61 Metabolites,"Krebs Cycle, 2-days",2
same,Decreased,"Krebs Cycle, 6-weeks",0
same,Fold Enrichment (Obs/Exp),"Krebs Cycle, 6-weeks",2.0
same,Fraction of Impact (VIP Score) Explained (% of 94.6),"Krebs Cycle, 6-weeks",5%
same,Impact (Sum VIP Score),"Krebs Cycle, 6-weeks",4.3
same,Increased,"Krebs Cycle, 6-weeks",2
same,Observed Hits in the Top 48 Metabolites,"Krebs Cycle, 6-weeks",2
same,Linear Ratio,"L-Asparagine, 6-weeks",1.360
same,VIP Score,"L-Asparagine, 6-weeks",1.824
same,Z Abs,"L-Asparagine, 6-weeks",1.581
same,Z Score,"L-Asparagine, 6-weeks",1.581
same,Linear Ratio,"L-Cystine, 6-weeks",1.190
same,VIP Score,"L-Cystine, 6-weeks",1.774
same,Z Abs,"L-Cystine, 6-weeks",1.060
same,Z Score,"L-Cystine, 6-weeks",1.060
same,Linear Ratio,"L-Kynurenine, 6-weeks",1.303
same,VIP Score,"L-Kynurenine, 6-weeks",2.096
same,Z Abs,"L-Kynurenine, 6-weeks",1.751
same,Z Score,"L-Kynurenine, 6-weeks",1.751
same,Linear Ratio,"L-Phenylalanine, 6-weeks",1.245
same,VIP Score,"L-Phenylalanine, 6-weeks",1.875
same,Z Abs,"L-Phenylalanine, 6-weeks",1.381
same,Z Score,"L-Phenylalanine, 6-weeks",1.381
same,Linear Ratio,"L-Proline, 6-weeks",1.196
same,VIP Score,"L-Proline, 6-weeks",1.546
same,Z Abs,"L-Proline, 6-weeks",0.749
same,Z Score,"L-Proline, 6-weeks",0.749
same,Linear Ratio,"L-Serine, 6-weeks",1.152
same,VIP Score,"L-Serine, 6-weeks",1.505
same,Z Abs,"L-Serine, 6-weeks",0.954
same,Z Score,"L-Serine, 6-weeks",0.954
same,Linear Ratio,"Lathosterol, 6-weeks",1.284
same,VIP Score,"Lathosterol, 6-weeks",1.844
same,Z Abs,"Lathosterol, 6-weeks",1.079
same,Z Score,"Lathosterol, 6-weeks",1.079
same,Linear Ratio,"Methionine sulfoxide, 6-weeks",1.409
same,VIP Score,"Methionine sulfoxide, 6-weeks",2.104
same,Z Abs,"Methionine sulfoxide, 6-weeks",2.083
same,Z Score,"Methionine sulfoxide, 6-weeks",2.083
same,Linear Ratio,"Mevalonic acid, 6-weeks",1.386
same,VIP Score,"Mevalonic acid, 6-weeks",1.673
same,Z Abs,"Mevalonic acid, 6-weeks",1.036
same,Z Score,"Mevalonic acid, 6-weeks",1.036
same,Decreased,"Microbiome Metabolism, 2-days",0
same,Fold Enrichment (Obs/Exp),"Microbiome Metabolism, 2-days",1.6
same,Fraction of Impact (VIP Score) Explained (% of 119.7),"Microbiome Metabolism, 2-days",8%
same,Impact (Sum VIP Score),"Microbiome Metabolism, 2-days",9.3
same,Increased,"Microbiome Metabolism, 2-days",4
same,Observed Hits in the Top 61 Metabolites,"Microbiome Metabolism, 2-days",4
same,Decreased,"Microbiome Metabolism, 6-weeks",0
same,Fold Enrichment (Obs/Exp),"Microbiome Metabolism, 6-weeks",2.0
same,Fraction of Impact (VIP Score) Explained (% of 94.6),"Microbiome Metabolism, 6-weeks",9%
same,Impact (Sum VIP Score),"Microbiome Metabolism, 6-weeks",8.4
same,Increased,"Microbiome Metabolism, 6-weeks",4
same,Observed Hits in the Top 48 Metabolites,"Microbiome Metabolism, 6-weeks",4
same,Decreased,[1],0
same,Fold Enrichment (Obs/Exp),[1],4.5
same,Fraction of Impact (VIP Score) Explained (% of 94.6),[1],2%
same,Impact (Sum VIP Score),[1],2.2
same,Increased,[1],1
same,Observed Hits in the Top 48 Metabolites,[1],1
same,Decreased,[2],1
same,Fold Enrichment (Obs/Exp),[2],3.5
same,Fraction of Impact (VIP Score) Explained (% of 119.7),[2],2%
same,Impact (Sum VIP Score),[2],1.9
same,Increased,[2],0
same,Observed Hits in the Top 61 Metabolites,[2],1
same,Linear Ratio,"Octanoylcarnitine, 6-weeks",0.703
same,VIP Score,"Octanoylcarnitine, 6-weeks",1.780
same,Z Abs,"Octanoylcarnitine, 6-weeks",1.451
same,Z Score,"Octanoylcarnitine, 6-weeks",−1.451
same,Linear Ratio,"PE (18:0/18:0), 6-weeks",0.644
same,VIP Score,"PE (18:0/18:0), 6-weeks",1.555
same,Z Abs,"PE (18:0/18:0), 6-weeks",1.331
same,Z Score,"PE (18:0/18:0), 6-weeks",−1.331
same,Decreased,[3],3
same,Fold Enrichment (Obs/Exp),[3],0.3
same,Fraction of Impact (VIP Score) Explained (% of 119.7),[3],5%
same,Impact (Sum VIP Score),[3],5.7
same,Increased,[3],0
same,Observed Hits in the Top 61 Metabolites,[3],3
same,Decreased,[4],1
same,Fold Enrichment (Obs/Exp),[4],0.1
same,Fraction of Impact (VIP Score) Explained (% of 94.6),[4],2%
same,Impact (Sum VIP Score),[4],1.6
same,Increased,[4],0
same,Observed Hits in the Top 48 Metabolites,[4],1
same,Decreased,"Purine Metabolism, 2-days",5
same,Fold Enrichment (Obs/Exp),"Purine Metabolism, 2-days",2.4
